Experimental data taken from patent US20160175249A1, “Liposomes Containing Oligopeptide Fragments of Myelin Basic Protein, a Pharmaceutical Composition and a Method for Treatment of Multiple Sclerosis” (LIPOXEN TECHNOLOGIES LIMITED, priority 2009, published 2016).

Columns and labels:
EAE-induced DA rats [1] = test: EAE-induced DA rat model, paralysis score and mortality (DA-EAE-28-02, Example 13); type: in vivo; details: 54 EAE induced DA rats; daily s.c. injection, 6 total; deaths/N
Description: Each of the eight MBP peptide formulations were provided as a lyophilized powder and stored at 4° C. Rehydration of each formulation with water for injection was done daily according to Table 10. MBP peptide formulations were re-suspended in water for injection (Cure Medical) and copaxone (Teva LTD) was diluted with saline to a final concentration of 450 μg/mL. Each subject animal was administered the test formulation for 6 consecutive days by subcutaneous injection.
8-9 week old Dark Agouti (DA) female rats (Harlan Laboratories, Inc.), weighing between 110 and 145 grams were used as the test subjects. The health status of the animals used in this study was examined on arrival. Only animals in good health were acclimatized to laboratory conditions and were used in the study. Animals were provided food ad libitum and free access to drinking water. […]
(§1) The rats were evaluated up daily starting 24 hours after immunization. […]
9-11 days post EAE induction, 54 animals were divided to 10 groups (5-6 rats in each), and blood was collected from 2 rats of each group before the initiation of the treatment. […] The animals were maintained and evaluated until day 28th post EAE-induction. […]
(§2) Animals were observed individually and clinical signs were recorded once daily during all study periods. […] The body weight of each animals was determined daily during all study periods. […]

EAE-induced DA rats [2] = test: EAE-induced DA rat model, paralysis score and mortality (DA-EAE-28-01, Example 12); type: in vivo; details: 54 EAE induced DA rats; daily s.c. injection, 6 total; peptide dose 50 μg (mixtures 150 μg); deaths/N
Description: Each of the seven formulations being evaluated was provided as a lyophilized powder and stored at 4° C. Rehydration of each daily group dose was done with water for injection according to Table 6. MBP peptide formulations were re-suspended in water for injection (Cure Medical) and copaxone (Teva LTD) was diluted with Saline to a final concentration of 150 μg/mL. Each subject animal was administered the test formulation for 6 consecutive days by subcutaneous injection.
9 week old Dark Agouti (DA) female rats (Harlan Laboratories, Inc.), weighing between 125 and 145 grams were used as the test subjects. The health status of the animals used in this study was examined on arrival. Only animals in good health were acclimatized to laboratory conditions and were used in the study. Animals were provided Protein Rodent Diet (Teklad) ad libitum and free access to drinking water. Animals were housed in a controlled environment at between 20° C. and 24° C. with a relative humidity of 30-70% and a 12 hr light/12 hr dark cycle. Animals were randomly assigned to their respective test group. This study was performed following the review by the Committee for Ethical Conduct in the Care and Use of Laboratory Animals of the Assaf Harofeh medical center, Beer Yaakov, Ethical Committee number: 68/2009.
For induction of EAE, rats were intradermally injected at the base of the tail with a total volume of 200 μl of inoculum containing 50 μg of MBP(63-81) (ANASPEC), in saline mixed (1:1) with CFA, (IFA, Sigma) and 1 mg Mt (strain H37 RA; Difco Laboratories, Detroit, Mich.).
as §1
7-10 days post EAE induction, 54 animals were divided to 9 groups (6 rats in each), and blood was collected from 2 rats of each group before the initiation of the treatment. […] The animals were maintained and evaluated until day 28th post EAE-induction. […]
as §2

Q: For glatiramer acetate [copaxone], which “Mortality Rate” value (EAE-induced DA rats [1]) is on record?
A: 1/5

Q: What about the “Mortality Rate” value (EAE-induced DA rats [2]) of the same substance?
A: 2/6
